In patent US10253041B2, “7-phenylethylamino-4H-pyrimido[4,5-d][1,3]oxazin-2-one compounds and their use as mutant IDH1 inhibitors” (Eli Lilly and Company, priority 2015, dated 2019):
Where two headings read alike, the source gives them in different places.

How the values were obtained:
IDH1/R132C = molecular target: T1, IDH1/R132C (Homo sapiens, UniProt O75874, R132C); assay: Biochemical assay for IDH1 R132C mutant enzyme (2HG by RapidFire MS); details: mean ± standard deviation of the mean; 90 minutes reaction
T1 construct: His-tag (N); made in house; host or cells: E. coli
T1 sequence (O75874 whole entry R132C): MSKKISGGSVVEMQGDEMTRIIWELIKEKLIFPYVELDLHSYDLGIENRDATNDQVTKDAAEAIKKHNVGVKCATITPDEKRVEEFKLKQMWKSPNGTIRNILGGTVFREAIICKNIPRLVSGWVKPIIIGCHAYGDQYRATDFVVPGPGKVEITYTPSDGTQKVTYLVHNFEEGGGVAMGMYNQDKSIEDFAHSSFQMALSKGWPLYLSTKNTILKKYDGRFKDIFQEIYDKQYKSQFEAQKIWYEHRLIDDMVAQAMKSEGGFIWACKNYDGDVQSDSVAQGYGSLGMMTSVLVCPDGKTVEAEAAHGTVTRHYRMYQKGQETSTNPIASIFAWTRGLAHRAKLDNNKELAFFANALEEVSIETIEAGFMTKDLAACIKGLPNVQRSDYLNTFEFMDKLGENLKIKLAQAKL
Protocol: (§1) IDH1-R132H, IDH1-R132C, IDH2-R172K and IDH2-R140Q mutant enzymes catalyze the conversion of αKG to 2HG. 2HG is analyzed using in-line solid phase extraction and mass spectrometry. This analysis is carried out in a RapidFire® instrument coupled to a 6460 triple quadrupole mass spectrometer (G6460A Agilent).
(§2) IDH1 mutant (R132H and R132C) and IDH2 mutant (R140Q and R172K) proteins containing N-terminal His-tag are expressed in E. coli and purified using nickel affinity chromatography. The enzyme assays are carried out in V-bottom 96 well polypropylene plates containing 100 mM Tris-HCl buffer, 1 mM DTT, 0.005% TRITON™ X-100, 120 mM NaCl. For IDH1 R132H, α-ketoglutarate, NADPH and MnCl2 are included at final concentrations of 300 μM, 2.5 μM and 300 μM respectively. For IDH1 R132C, α-ketoglutarate, NADPH and MnCl2 are included at final concentrations of 100 μM, 10 μM and 100 μM respectively. For IDH2 R172K, α-ketoglutarate, NADPH and MnCl2 are included at final concentrations of 150 μM, 10 μM and 150 μM respectively. For IDH2 R140Q, α-ketoglutarate, NADPH and MnCl2 are included at final concentrations of 3000 μM, 10 μM and 100 μM respectively. Final pH=7.0. Test compound dissolved in DMSO stock is diluted in the reaction mix at a final DMSO concentration of 4%. Compounds are tested in dose-response format. The assay is started by addition of enzyme. Enzymes are used at the following final concentrations: IDH1 R132H, 2 nM; IDH1 R132C, 0.5 nM; IDH2 R172K, 1.2 nM; IDH2 R140Q, 1.2 nM. After 90 minutes the reaction is quenched by adding ACN (50:50) containing 3-hydroxy-1,5-pentanedioic-2,2,3,4,4-d5 acid (5d5-3HG) as an internal standard for mass spectrometry analysis and quantitation of reaction product. 2-Hydroxyglutarate (2HG) in quenched samples is separated using strong anionic exchange column chromatography (Phenomenex Strata-X-A SecurityGuard) and analyzed by mass spectrometry in a 6460 triple quadrupole mass spectrometer (G6460A Agilent). The 2HG signal detected is transformed into an analyte concentration using a calibration curve generated using known 2HG concentrations. […] IC50 values are obtained from the individual % inhibition values at different compound concentrations using a 4-parameter equation. These calculations are carried out using Activity Base (IDBS) or Screener (Genedata) data analysis programs.

IDH2/R140Q = molecular target: T2, IDH2/R140Q (Homo sapiens, UniProt P48735, R140Q); assay: Biochemical assay for IDH2 R140Q mutant enzyme (2HG by RapidFire MS); details: mean ± standard deviation of the mean; 90 minutes reaction
T2 construct: His-tag (N); made in house; host or cells: E. coli
T2 sequence (P48735 40-452 R140Q): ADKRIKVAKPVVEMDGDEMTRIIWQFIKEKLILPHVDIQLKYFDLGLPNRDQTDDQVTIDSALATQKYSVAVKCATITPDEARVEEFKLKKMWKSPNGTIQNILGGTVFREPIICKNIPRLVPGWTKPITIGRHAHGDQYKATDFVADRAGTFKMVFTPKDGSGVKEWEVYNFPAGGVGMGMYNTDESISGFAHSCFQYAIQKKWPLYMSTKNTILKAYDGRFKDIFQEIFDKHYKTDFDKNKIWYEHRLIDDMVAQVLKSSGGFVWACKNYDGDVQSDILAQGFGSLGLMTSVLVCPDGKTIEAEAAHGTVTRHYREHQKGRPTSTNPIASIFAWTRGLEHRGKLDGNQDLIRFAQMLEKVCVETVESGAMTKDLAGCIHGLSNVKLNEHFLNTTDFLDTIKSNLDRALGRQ
Protocol: as §1, §2

[1] = tested on: IDH1/R132H in U87MG glioma cells; assay: U87MG/IDH1R132H cell assay (intracellular 2HG); type: cell-based; details: 1 hour + 18 hours incubation, read-out: U87MG (IDH1/R132H 2-hydroxyglutarate IC50)
Protocol: To test the cellular inhibition of IDH1 mutant R132C, the fibrosarcoma cell line HT1080 (purchased from ATCC) is used. For testing cell-based inhibition of the R132H mutation, the U87MG glioma cell line (ATCC) was stably transfected with a DNA construct expressing the R132H mutant enzyme.
Cells are plated in poly-D-lys coated 96 well plates (12,000 cells/well) 18-24 hours previous to treatment with compounds. Four hours prior to compound treatment, cells are glutamine-starved by removing normal media and replacing with glutamine-free media. Following starvation, cells are then treated with different concentrations of test compounds (20 μM to 1 nM) dissolved in glutamine free media containing DMSO at a final concentration of 0.2%. The initial compound incubation is for 1 hour at 37° C./5% CO2. After 1 hour, glutamine is added to a final 2 mM concentration and the treated cells are then incubated for a further 18 hours at 37° C./5% CO2. Intracellular 2HG is analyzed in cell lysates obtained after media removal and treatment with lysis buffer (25 mM Tris-HCl pH 7.5, 150 mM NaCl, 1 mM EDTA, 1 mM EGTA/1% Triton-X 100). Cell lysates are conserved at −80° C. until processing. For analyte extraction, an aliquot of thawed lysate is transferred to a deep 96-well plate and treated with cold MeOH containing d5-3HG as an internal standard followed by chloroform and H2O (1:4:3:2). The upper phase is collected after separation and injected in HPLC to separate 2HG (and internal standard) using hydrophilic interaction (HILIC) chromatography coupled to MS/MS detection in a 6460 triple quadrupole mass spectrometer. Percent inhibition for each individual sample is obtained after normalizing calculated 2HG concentration to maximum and minimum references obtained in the presence and in the absence of glutamine during cell treatment with compounds. IC50 values are obtained from individual % inhibition using a sigmoidal dose-response 4-parameter equation. These calculations are carried out automatically using Activity Base (IDBS) or Screener (Genedata) data analysis programs.

Compound	IC50 (IDH1/R132C)	IC50 (IDH2/R140Q)	IC50 ([1]; Homo sapiens, U-87 MG, 19 h)	IC50 ([1]; Homo sapiens, U-87 MG)	IC50 [1]
C=CC(=O)N1CC(COc2ccc([C@H](C)Nc3ncc4c(n3)N(C(C)C)C(=O)OC4)cc2)C1 [Example 9, 1-Isopropyl-7-[[(1S)-1-[4-[(1-prop-2-enoylazetidin-3-yl)methoxy]-phenyl]ethyl]amino]-4H-pyrimido[4,5-d][1,3]oxazin-2-one]	62.9 ± 18.8 nM	27000 nM	3.68 ± 0.57 nM		
C=CC(=O)N1CCN(Cc2ccc([C@H](C)Nc3ncc4c(n3)N(CC(C)C)C(=O)OC4)cc2)CC1 [Example 3, 1-Isobutyl-7-[[(1S)-1-[4-[(4-prop-2-enoylpiperazin-1-yl)methyl]phenyl]ethyl]amino]-4H-pyrimido[4,5-d][1,3]oxazin-2-one]	29.5 ± 8.2 nM	59500 nM	5.9 nM		
C=CC(=O)N1CCN(Cc2ccc([C@H](C)Nc3ncc4c(n3)N(C)C(=O)OC4)cc2)CC1 [Example 19, 1-Methyl-7-[[(1S)-1-[4-[(4-prop-2-enoylpiperazin-1-yl)methyl]phenyl]ethyl]amino]-4H-pyrimido[4,5-d][1,3]oxazin-2-one]	1580 ± 340 nM	> 100000 nM		44.9 ± 22.4 nM	
C=CC(=O)N1CCN(Cc2ccc([C@H](C)Nc3ncc4c(n3)N(CC(F)F)C(=O)OC4)cc2)CC1 [Example 20, 1-(2,2-difluoroethyl)-7-[[(1S)-1-[4-[(4-prop-2-enoylpiperazin-1-yl)methyl]phenyl]ethyl]amino]-4H-pyrimido[4,5-d][1,3]oxazin-2-one]	189 ± 33 nM	83500 ± 17400 nM	31.9 ± 11.7 nM		
C=CC(=O)N1CC2(CN(Cc3ccc([C@H](C)Nc4ncc5c(n4)N(C(C)C)C(=O)OC5)cc3)C2)C1 [Example 15, 1-Isopropyl-7-[[(1S)-1-[4-[(2-prop-2-enoyl-2,6-diazaspiro[3.3]heptan-6-yl)methyl]phenyl]ethyl]amino]-4H-pyrimido[4,5-d][1,3]oxazin-2-one]	109 ± 54 nM	> 100000 nM	3.9 nM		
C=CC(=O)N1CCN(Cc2ccc([C@H](C)Nc3ncc4c(n3)N(CC)C(=O)OC4)cc2)CC1 [Example 2, 1-Ethyl-7-[[(1S)-1-[4-[(4-prop-2-enoylpiperazin-1-yl)methyl]phenyl]ethyl]amino]-4H-pyrimido[4,5-d][1,3]oxazin-2-one]	102 ± 43 nM	73900 nM			5.08 ± 1.65 nM
C=CC(=O)N1CC=C(COc2ccc([C@H](C)Nc3ncc4c(n3)N(CC)C(=O)OC4)cc2)C1 [Example 22, 1-ethyl-7-[[(1S)-1-[4-[(1-prop-2-enoyl-2,5-dihydropyrrol-3-yl)methoxy]phenyl]ethyl]amino]-4H-pyrimido[4,5-d][1,3]oxazin-2-one]	77.1 ± 10.2 nM	11600 ± 2000 nM			

More lines, main results first:

IC50 (IDH1/R132C)	IC50 (IDH2/R140Q)	IC50 ([1]; Homo sapiens, U-87 MG, 19 h)	IC50 ([1]; Homo sapiens, U-87 MG)	Compound	IC50 [1]
309 ± 107 nM	> 100000 nM	7.14 ± 1.27 nM		C=CC(=O)N1CC(N(C)Cc2ccc([C@H](C)Nc3ncc4c(n3)N(CC)C(=O)OC4)cc2)C1 [Example 10, 1-Ethyl-7-[[(1S)-1-[4-[[methyl-(1-prop-2-enoylazetidin-3-yl)amino]methyl]-phenyl]ethyl]amino]-4H-pyrimido[4,5-d][1,3]oxazin-2-one]	
82.5 ± 58.3 nM	> 100000 nM	9.75 ± 2.41 nM		C=CC(=O)N1CC2(CN(Cc3ccc([C@H](C)Nc4ncc5c(n4)N(CC)C(=O)OC5)cc3)C2)C1 [Example 14, 1-Ethyl-7-[[(1S)-1-[4-[(2-prop-2-enoyl-2,6-diazaspiro[3.3]heptan-6-yl)methyl]phenyl]ethyl]amino]-4H-pyrimido[4,5-d][1,3]oxazin-2-one]	
133 ± 32 nM	37700 nM	2.98 ± 2.58 nM		C=CC(=O)N1CC(OCc2ccc([C@H](C)Nc3ncc4c(n3)N(CC)C(=O)OC4)cc2)C1 [Example 4, 1-Ethyl-7-[[(1S)-1-[4-[(1-prop-2-enoylazetidin-3-yl)oxymethyl]phenyl]ethyl]amino]-4H-pyrimido[4,5-d][1,3]oxazin-2-one]	
